Results taken from publication PMC7768359, “Synthesis of Platinum(II) Complexes with Some 1-Methylnitropyrazoles and In Vitro Research on Their Cytotoxic Activity” (Pharmaceuticals, 2020).

How the values were obtained:
[1] = tested on: MCF-7 (breast adenocarcinoma); assay: In vitro cytotoxicity, sulforhodamine B assay; type: cell-based, human; details: 72 h
Protocol: (§1) Determination of the cytotoxic activity of compounds tested was performed separately in the normoxia or hypoxia conditions to reveal their potentially bioreductive properties. The experiment was carried out on three human cancer cell lines: MCF-7 breast, ES-2 ovarian and A549 lung adenocarcinoma as well as normal murine embryonic fibroblast BALB/3T3 cell line. In order to facilitate the preparation of solutions of the tested compounds, their initial solutions for dilution were made by dissolving the compounds in acetone. For this purpose, it was not possible to use more polar aprotic solvents (DMSO, DMF) due to the rapid isomerization of some of the tested complexes under their influence.
(§2) All the cell lines were cultured at 37 °C in a humid atmosphere containing 5% CO2. Additionally, in the case of cytotoxicity assay with hypoxic conditions, the cells (MCF-7, ES-2, A549) were maintained at 37 °C in a humid atmosphere containing 5% CO2 and 1% O2 during the entire experiment.
(§3) Twenty-four hours before adding the tested compounds, all cell lines were seeded in 96-well plates ([…] AG & Co, Nümbrecht Germany) in an appropriate media with 10^4 cells per well. All cell lines were exposed to each compound tested at four different concentrations for 72 h. […] Additionally, all cell lines were exposed to acetone (Avantor Performance Materials, Gliwice, Poland) (the solvent used for tested compounds) at concentrations corresponding to those present in tested compounds’ dilutions.
(§4) After 72 h of cell incubation with the compounds tested, the sulforhodamine B (SRB) assay was performed as described by Shekan et al. with minor modifications. The cells were fixed in situ by adding 50 µL per well of cold 50% trichloroacetic acid (Avantor Performance Materials, Gliwice, Poland) and were incubated at 4 °C for one hour. Following that, wells were washed five times with water and air dried. Next, 50 µL of 0.4% solution of sulforhodamine B (Sigma-Aldrich, Steinheim, Germany) in 1% acetic acid (Avantor Performance Materials, Gliwice, Poland) were added to each well and plates were incubated at room temperature for 0.5 h. After incubation time, the unbound dye was removed by washing plates five times with 1% acetic acid, whereas stains bound to cells was solubilized with 10 mM Tris base (Sigma-Aldrich, Steinheim, Germany). The absorbance of each solution was read by the Multiskan RC photometer (Labsystems Diagnostics Oy, Vantaa, Finland) at a 540 nm wavelength. Results are presented as mean IC50 (concentration of the compound tested that inhibits cell proliferation by 50%) ± standard deviation. IC50 values were calculated for each experiment on the basis of four different concentrations using Cheburator software, as described by Nevozhay. The tested compounds at each concentration were tested in triplicates in a single experiment and each experiment was repeated at least three times independently.

[2] = tested on: A549 (lung adenocarcinoma); assay: In vitro cytotoxicity, sulforhodamine B assay; type: cell-based, human; details: 72 h
Protocol: as §1, §2, §3, §4

[3] = tested on: ES-2 (ovarian adenocarcinoma); assay: In vitro cytotoxicity, sulforhodamine B assay; type: cell-based, human; details: 72 h
Protocol: as §1, §2, §3, §4

[4] = tested on: BALB/3T3 (murine embryonic fibroblast); assay: In vitro cytotoxicity, sulforhodamine B assay, normal cells; type: cell-based; details: BALB/3T3 normal cells, normoxia, 72 h
Protocol: Determination of the cytotoxic activity of compounds tested was performed separately in the normoxia or hypoxia conditions to reveal their potentially bioreductive properties. The experiment was carried out on three human cancer cell lines: MCF-7 breast, ES-2 ovarian and A549 lung adenocarcinoma as well as normal murine embryonic fibroblast BALB/3T3 cell line. In order to facilitate the preparation of solutions of the tested compounds, their initial solutions for dilution were made by dissolving the compounds in acetone.
All cell lines were exposed to each compound tested at four different concentrations for 72 h. […] Additionally, all cell lines were exposed to acetone (Avantor Performance Materials, Gliwice, Poland) (the solvent used for tested compounds) at concentrations corresponding to those present in tested compounds’ dilutions.
as §4, with “Results are presented as mean IC50 (concentration of the compound tested that inhibits cell proliferation by 50%) ± standard deviation.” left out

MCF-7 cells = assay: Total cellular platinum uptake (ICP OES); type: cell-based, human; details: MCF-7, 4 h exposure, 10 µM
Protocol: It is necessary to strongly emphasize that the underlined values have a statistically significant lack of variance homogeneity (Fisher–Snedecor’s F-test, Fα/2) with respect to reference drug variance, so Aspin–Welch’s t-test was applied in these cases. […] For ionic compound 8, platinum uptake value was not determined due to Pt concentrations in the cell lysates being below the instrument detection limit (IDL = 10 μg/kg) specified by the manufacturer for the device used.
Cultured MCF-7 cells were seeded at a density of 4 × 10^5 cells/well of culture medium on a 6-well plate (Corning, NY, USA) to a final volume of 2.5 mL. […] The wells without MCF-7 cells were filled with 1 mL of culture medium-containing compound tested to act as a reference for nonspecific platinum complex adsorption on the surface of the well. After incubation, all wells were washed twice with 2 mL of cold PBS, filled with 400 μL of hot (ca 90 °C) 65% nitric acid, and maintained to stand for 2 h. All wells were finally filled with 1600 μL of water and this solution was collected and analyzed using iCAP 7400 Duo ICP OES instrument (Thermo Fisher Scientific) using the plasma axial view (10 s) at λ = 265.945 nm. The amount of Pt per cell was calculated by subtracting the amount of Pt found in the blank well from the amount of Pt found in the cell-containing wells and normalized to the average number of cells per well. The mean and SD values were calculated on the basis of 4 measurements.

[5] = logP by shake-flask method (n-octanol / 0.9% NaCl, Pt by ICP-OES); type: physicochemical; details: octanol/water, n = 4
Protocol: An important factor for the pharmacokinetics and the cellular accumulation of the investigated complexes, their lipophilicity was determined by measuring octanol/water partition coefficients (logP) with the shake-flask method. The logP determination was carried out based on a previously described procedure, modified by us to obtain more accurate and repeatable results.
Weighted amounts of the tested platinum complex were suspended by 10 min sonification in 0.9% NaCl water solution, which was previously saturated with n-octanol, and mixed by shaking for 1 h. A simultaneously similar procedure was performed using 5 mL of n-octanol pre-saturated with 0.9% NaCl. Afterward, both suspensions were mixed together, shaken for an additional 1 h, and centrifuged for 5 min. After phase separation and evaporation in vacuo of 1 mL of sample to dryness, the final concentration of Pt was determined by ICP-OES (λ = 265.945 nm) and the partition coefficients were calculated. For the analysis, all samples were dissolved 1:1000 in 2.5% HCl. Each measurement was repeated four times and the final logP was calculated as the arithmetic mean of the four values.

[6] = parameters: method as in PMID 18777181; details: cited from earlier work

| SMILES | IC50 ± SD ([1]; MCF-7, hypoxia (1% O2)) | IC50 ± SD ([1]; MCF-7, normoxia) | IC50 ± SD ([2]; A549, hypoxia (1% O2)) | IC50 ± SD ([2]; A549, normoxia) | IC50 ± SD ([3]; ES-2, hypoxia (1% O2)) | IC50 ± SD ([3]; ES-2, normoxia) | IC50 ([4]; Mus musculus) | IC50 ([1]; MCF-7, hypoxia (1% O2)) | IC50 ([1]; MCF-7, normoxia) | IC50 ([2]; A549, hypoxia (1% O2)) | IC50 ([2]; A549, normoxia) | IC50 ([3]; ES-2, hypoxia (1% O2)) | IC50 ([3]; ES-2, normoxia) | Total Cellular Platinum Uptake in MCF-7 Cells (± SD) (MCF-7 cells) | IC50 [4] | logP ± SD [5] | half-time of the reaction with GSH [6] |
| --- | --- | --- | --- | --- | --- | --- | --- | --- | --- | --- | --- | --- | --- | --- | --- | --- | --- |
| Cn1cc([N+](=O)[O-])cn1 [1-Methyl-4-nitropyrazole, 1-methyl-4-nitropyrazole, reference compound] | inactive | inactive | inactive | inactive | inactive | inactive | > 100 µM | – | – | – | – | – | – | – | – | – | – |
| N.N.[Cl][Pt][Cl] [Cisplatin, cisplatin, reference compound] | – | – | – | – | – | – | – | 14.7 ± 5.8 µM | 12.6 ± 2.6 µM | 23.9 ± 9.3 µM | 9.8 ± 1.2 µM | 13.7 ± 5.7 µM | 8.6 ± 2.6 µM | 74 ± 20 ng Pt/10^6 Cells | 8.67 ± 2.6 µM | – | – |
| COC(=O)c1c([N+](=O)[O-])c[n+]([Pt@SP2-2]([Cl])([Cl])[n+]2cc([N+](=O)[O-])c(C(=O)OC)n2C)n1C [Compound 5, cis-dichloridobis(methyl 1-methyl-4-nitropyrazole-5-carboxylate)platinum(II)] | inactive | – | inactive | inactive | inactive | – | – | – | 49.1 ± 30.1 µM | – | – | – | 38.1 ± 9.2 µM | 39 ± 3 ng Pt/10^6 Cells | > 100 µM | −0.58 ± 0.13 | – |
| COC(=O)c1c([N+](=O)[O-])c[n+]([Pt@SP3-2]([Cl])([Cl])[n+]2cc([N+](=O)[O-])c(C(=O)OC)n2C)n1C [Compound 6, trans-dichloridobis(methyl 1-methyl-4-nitropyrazole-5-carboxylate)platinum(II)] | – | – | inactive | – | – | – | – | 86.8 ± 19 µM | 23.6 ± 8.6 µM | – | 58.2 ± 7.6 µM | 99.8 ± 37.9 µM | 36.3 ± 8.6 µM | 47 ± 17 ng Pt/10^6 Cells | > 100 µM | −0.37 ± 0.03 | – |
| Cc1c([N+](=O)[O-])cn(C)[n+]1[Pt@SP2-2]([Cl])([Cl])[n+]1c(C)c([N+](=O)[O-])cn1C [Compound 7, cis-dichloridobis(1,3-dimethyl-4-nitropyrazole)platinum(II)] | inactive | – | inactive | – | inactive | – | – | – | 58 ± 8.7 µM | – | 93 ± 12.9 µM | – | 68.9 ± 10 µM | 16 ± 7 ng Pt/10^6 Cells | > 100 µM | −0.69 ± 0.04 | – |
| COC(=O)c1c([N+](=O)[O-])cn(C)[n+]1[Pt-2]([Cl])([Cl])[Cl].[K+] [Compound 8, potassium trichlorido(3-carboxymethyl-1-methyl-4-nitropirazole)platinate(II)] | inactive | inactive | inactive | inactive | inactive | – | – | – | – | – | – | – | 48.5 ± 25.9 µM | ^† below IDL | > 100 µM | −1.22 ± 0.08 | – |
| N.N.[Cl][Pt+2][Cl] [transplatin] | – | – | – | – | – | – | – | – | – | – | – | – | – | – | – | – | 4 min |
